{"source": "patent US6947790B2", "about": "“Neurocognitive function EEG measurement method and system” (priority 2000, dated 2005)", "key": {"[1]": {"tested_on": "healthy subjects", "test": "Experiment 5: resting and task-related EEG and ERP", "assay_type": "in vivo, human", "method": "(§1) Experiment: The motivation behind this experiment was to evaluate whether EEG and/or behavioral indices could be used to detect cognitive side effects of a common psychiatric medication. […] It acts primarily on the GABAergic system, enhancing the inhibitory effects of this neurotransmitter. […] It adversely affects memory functions and psychomotor performance following acute administration, and its CNS effects can be detected in EEG measures. […] The experiment was performed according to a double blind, fully counterbalanced design, and all participation was fully informed and voluntary.\n(§2) They then participated in three sessions: a training session and two experimental sessions. In the initial session, following informed consent procedures, subjects were familiarized with the recording methods and apparatus, and given a sham (placebo) drug dose. They then practiced the tasks until performance levels reached asymptote. […] Each session consisted of a pre-drug baseline-recording interval, followed by five post-drug recording intervals extending to 5 hours after drug administration. In the pre-drug interval and in each of the post-drug intervals EEG was recorded while subjects performed computer-presented tasks and while they rested quietly. The computerized tasks included easy and difficult versions of a sustained attention working memory task, where difficulty was manipulated by varying working memory load. Subjective scales were also used to assess drowsiness, mood, and perceived drug effects. The entire procedure, including preparation time and rest breaks lasted approximately 7 hours. Transportation home was provided for the subjects at the end of each experimental session."}, "[2]": {"tested_on": "healthy subjects", "test": "Experiment 5: NCFC index", "assay_type": "in vivo, human", "settings": "FIG. 11", "excerpt": "The resulting function is structured such that improvement in cognitive function in response to some intervention results in a positive deviation of the index, and impairment in cognitive function in response to some intervention results in a negative deviation of the index. […] In the first and second periods following drug ingestion the change in index values were highly significant across the group of subjects (t(9)=−4.02, p<0.004 and t(9)=−3.54, p<0.007 for t1 and t2 respectively), with some recovery in the later test periods (p's<0.05 for the rest of the test session)."}, "[3]": {"settings": "in vivo; cited from earlier work"}, "[4]": {"tested_on": "healthy subjects", "test": "Experiment 5: working memory task performance", "method": "as §1, §2"}, "[5]": {"tested_on": "healthy subjects", "test": "Experiment 5: subjective scales after alprazolam", "method": "as §1, §2"}, "[6]": {"tested_on": "healthy adults", "test": "Chronic AED administration study: NCFC", "assay_type": "in vivo, human", "settings": "one subject, after 30 days of chronic treatment, FIG. 14", "excerpt": "In Progress Study of Effects of Chronic AED Administration. Although their mechanisms of action are varied and incompletely understood, AEDs as a class tend to limit sustained repetitive firing of neurons by antagonizing mechanisms of excitation or by agonizing mechanisms of inhibition. It is likely that such effects have a measurable influence on task-related EEG or ERP parameters. Such biomarkers are being identified through exploratory analyses of data from subjects taking AEDs for 4 weeks. The study, which is being performed by Drs. F. Gilliam and K. Meador, is a randomized, double blind, crossover comparison of the cognitive and behavioral effects of chronic administration of the AEDs lamotrigine and topiramate in healthy adults. Lamotrigine and topiramate are newer AEDs that have been reported to differ in their cognitive side effects.\nThe study is designed such that subjects are randomized in a first treatment period to receive either lamotrigine or topiramate for 12 weeks (7 weeks of dose escalation followed by 4 weeks of maintenance therapy and then 1 week of tapering off the drug). […] In each test session, subjects have their EEG recorded from 8 scalp electrodes (positioned at AFz, F3, F4, C3, C4, Pz, PO3, PO4) and their EOG recorded from electrodes placed on the supraorbital ridge and outer canthus of each eye, while they perform the WM task and while they rest quietly."}, "[7]": {"settings": "blood serum; cited from earlier work"}, "[8]": {"test": "Experiment 6: phenytoin blood serum levels", "assay_type": "in vivo", "settings": "human, oral, 10 mg/kg bodyweight, 5 hrs after 10 mg/kg bodyweight"}, "[9]": {"tested_on": "healthy normal subjects", "test": "Experiment 6: resting and task-related EEG and ERP", "assay_type": "in vivo, human", "method": "The computerized tasks included a simple reaction time task and easy and difficult versions of the sustained attention WM task, in which difficulty was manipulated by varying WM load. Subjective scales were also administered to assess drowsiness, mood, and perceived drug effects. […] Transportation home was provided at the end of the sessions. Neurophysiological Alertness: To examine whether there was any neurophysiological evidence for decreased alertness, the EEG data were processed to eliminate artifacts and to compute power spectra and ERPs in each test condition. […] These physiological changes are consistent with the subjective reports of increased drowsiness following phenytoin."}, "[10]": {"tested_on": "healthy normal subjects", "test": "Experiment 6: NCFC index", "from_the_text": "Neurocognitive Function Change Index: The hybrid multivariate function for assessing changes in neurocognitive function described in Experiment 2 was also applied to this dataset, computing degree of neurocognitive change from an average of the placebo test sessions. The resulting index scores were then computed as deviations from the pre-drug test administration index score to illustrate how neurocognitive function varied over the phenytoin test session."}, "[11]": {"tested_on": "healthy normal subjects", "test": "Experiment 6: subjective scales after phenytoin", "assay_type": "in vivo, human", "method": "Experiment: The motivation behind this experiment was to evaluate how EEG and behavioral indices might be used to detect mild cognitive side effects of neurological medications, such as anti-epileptic drugs (AEDs). […] The computerized tasks included a simple reaction time task and easy and difficult versions of the sustained attention WM task, in which difficulty was manipulated by varying WM load. Subjective scales were also administered to assess drowsiness, mood, and perceived drug effects. […] Transportation home was provided at the end of the sessions."}, "[12]": {"tested_on": "healthy normal subjects", "test": "Experiment 6: task performance", "set-up": "species or system human", "settings": "in vivo", "method": "The computerized tasks included a simple reaction time task and easy and difficult versions of the sustained attention WM task, in which difficulty was manipulated by varying WM load. Subjective scales were also administered to assess drowsiness, mood, and perceived drug effects. […] Transportation home was provided at the end of the sessions."}, "[13]": {"tested_on": "healthy adults", "settings": "as reported for these AEDs; cited from earlier work"}}, "note": "Like-named read-outs stand apart in the source and are kept apart here.", "data": [{"compound": "Cc1nnc2n1-c1ccc(Cl)cc1C(c1ccccc1)=NC2", "note": "[alprazolam]", "values": [{"measurement": "P300 amplitude vs placebo", "setting": "[1]; difficult task level", "result": "significantly reduced P300 amplitude"}, {"measurement": "Resting beta power vs placebo", "setting": "[1]; eyes closed state", "result": "highly significant increase in beta power"}, {"measurement": "Resting theta power vs placebo", "setting": "[1]; eyes closed state", "result": "did not affect theta power in the eyes closed state"}, {"measurement": "Resting alpha power vs placebo", "setting": "[1]; eyes open and eyes closed states", "result": "significantly reduced alpha power in both eyes open and eyes closed states"}, {"measurement": "Resting beta power vs placebo", "setting": "[1]; eyes open state", "result": "same pattern of enhancement after drug ingestion, but to a lesser extent than in the eyes closed state"}, {"measurement": "Resting theta power vs placebo", "setting": "[1]; eyes open state", "result": "significant decrease in theta power in the eyes open state"}, {"measurement": "Task-related beta power vs placebo", "setting": "[1]; in vivo", "result": "significantly larger on the alprazolam day than on the placebo day"}, {"measurement": "Task-related frontal midline theta vs placebo", "setting": "[1]; in vivo", "result": "significantly attenuated"}, {"measurement": "Task-related slow and fast alpha signals vs placebo", "setting": "[1]; in vivo", "result": "significantly attenuated"}, {"measurement": "P300 amplitude vs placebo", "setting": "[1]; low load task level and simple reaction time task", "result": "did not significantly differ between placebo and alprazolam conditions"}, {"measurement": "Pharmacodynamic profile: onset of cognitive impairment", "setting": "[2]", "result": "rapid and relatively severe"}, {"measurement": "Tpeak", "setting": "[3]", "result": "1 to 2", "unit": "h"}, {"measurement": "plasma half-life", "setting": "[3]", "result": "6 to 16", "unit": "h"}, {"measurement": "Time of largest effect on behavioral performance", "setting": "[4]; after drug ingestion", "result": "0.5 to 1", "unit": "h"}, {"measurement": "Accuracy in working memory task vs placebo", "setting": "[4]; easy and difficult level", "result": "less accurate"}, {"measurement": "Response speed in working memory task vs placebo", "setting": "[4]; easy and difficult level", "result": "significantly slower"}, {"measurement": "Time of behavior returning towards baseline levels", "setting": "[4]; post drug ingestion", "result": "3.5 to 4", "unit": "h"}, {"measurement": "Other subjective effects vs placebo", "setting": "[5]; 1 mg alprazolam", "result": "significantly more sleepy, more “spacey/out of it”, and more clumsy"}, {"measurement": "Visual analogue scale: feel the effects of the drug, vs placebo", "setting": "[5]; 1 mg alprazolam", "result": "heightened sense that they could “feel the effects of the drug”"}, {"measurement": "Onset of felt drug effects", "setting": "[5]; after drug ingestion", "result": 0.5, "unit": "h"}, {"measurement": "Peak of felt drug effects", "setting": "[5]; after drug ingestion", "result": "1.5 to 2", "unit": "h"}]}, {"compound": "Nc1nnc(-c2cccc(Cl)c2Cl)c(N)n1", "note": "[lamotrigine]", "values": [{"measurement": "NCFC scores relative to pre-treatment baseline", "setting": "[6]", "result": "impaired neurocognitive function was observed in response to both drugs"}]}, {"compound": "O=C1NC(=O)C(c2ccccc2)(c2ccccc2)N1", "note": "[phenytoin]", "values": [{"measurement": "therapeutic range", "setting": "[7]", "result": "10 to 20", "unit": "µg/mL"}, {"measurement": "concentration at 5 h", "setting": "[8]; read-out: blood serum level range", "result": "3500 to 13600", "unit": "ng/mL"}, {"measurement": "concentration at 5 h", "setting": "[8]; read-out: mean blood serum level", "result": 9000, "unit": "ng/mL"}, {"measurement": "Attention-related enhancement of N160 response to target stimuli", "setting": "[9]; easy level of the task", "result": "significantly reduced in the phenytoin condition"}, {"measurement": "Resting alpha band power vs placebo", "setting": "[9]; eyes-closed", "result": "decrease in power in the 9-11 Hz (alpha band) frequency range"}, {"measurement": "Resting theta band power vs placebo", "setting": "[9]; eyes-closed, parieto-occipital electrodes", "result": "small increase in power in the 3-6 Hz (theta band) frequency range"}, {"measurement": "Effects on centroparietal P300 component", "setting": "[9]; in vivo", "result": "heterogeneous"}, {"measurement": "Difficulty-related enhancement of frontal midline theta signal", "setting": "[9]; low load vs high load WM task", "result": "reduced the difficulty-related enhancement of the frontal midline theta signal"}, {"measurement": "Pharmacodynamic profile: onset of cognitive impairment", "setting": "[10]; FIG. 12", "result": "slower to develop and relatively mild"}, {"measurement": "Period of acute impairment in individual subjects", "setting": "[10]; following drug ingestion", "result": "2 to 4", "unit": "h"}, {"measurement": "Average NCFC index scores", "setting": "[10]; relative to pre-treatment baseline", "result": "tended to decline relative to the pre-treatment baseline interval"}, {"measurement": "Visual analogue scale: feel the effects of the drug, vs placebo", "setting": "[11]; 10 mg/kg phenytoin", "result": "heightened sense that they could “feel the effects of the drug”"}, {"measurement": "Time of strongest sensations", "setting": "[11]; after drug administration", "result": "about 4 hours"}, {"measurement": "Subjective sleepiness vs placebo", "setting": "[11]; in vivo", "result": "marginally more sleepy"}, {"measurement": "Accuracy and reaction time during task performance vs placebo", "setting": "[12]", "result": "neither accuracy nor reaction time during task performance differed on average"}]}, {"compound": "CC1(C)O[C@@H]2[C@@H](CO[C@@]3(COS(N)(=O)=O)OC(C)(C)O[C@@H]23)O1", "note": "[topiramate]", "values": [{"measurement": "NCFC scores relative to pre-treatment baseline", "setting": "[6]", "result": "impaired neurocognitive function was observed in response to both drugs"}, {"measurement": "Cognitive side effect profile", "setting": "[13]", "result": "relatively worse cognitive side effect profile than lamotrigine"}]}]}
